Reference: patent US20110275675A1, “Antimicrobial Dental Materials” (IVOCLAR VIVADENT AG, priority 2010, published 2011)
Entries after “also recorded” stand apart in the source; their conditions may differ. Each block holds one compound with its values, some of them ahead of it.

What was measured:
[1] = Hardening on exposure to dental polymerization light; type: physicochemical; conditions: 20 s exposure to light (Bluephase); 0.2 or 0.5 wt.-% Ia in Fermit
Experimental: (§1) 0.2 wt.-% or 0.5 wt.-% of the antimicrobial active ingredient of formula (Ia) was incorporated into the commercially available composite-based temporary filling material Fermit (Ivoclar Vivadent AG). […] The Shore D hardness was then determined (see Table 4 for results).

Streptococcus mutans = test: Agar plate zone of inhibition test; type: cell-based, S. mutans DSM20723; conditions: 24 h at 37° C./5% CO2
From the text: To determine the antimicrobial action of a temporary dental cement with the active ingredient of formula (Ia), 3.0 wt.-% of the active ingredient of formula (Ia) was incorporated into the commercially available cement Systemp.link (Ivoclar Vivadent AG). Round testpieces with a diameter of 10 mm and a thickness of 2 mm were then shaped into small plates with the corresponding material and then cured. Testpieces made of Systemp.link without active ingredient and also with 1.0 and 3.0 wt.-% triclosan served as reference. After this, the antimicrobial action on the bacterial strain Streptococcus mutans was studied. The agar plate zone of inhibition test was used for this.
Bacterial strain: S. mutans DSM20723 Cultivation medium: BHI broth
100 μl undiluted S. mutans culture solution was plated out onto agar plates. The testpieces were then placed on the agar plates. After 24 h storage at 37° C./5% CO2, the plates were assessed.

[2] = Through-curing depth of light-curing composite filling material; type: physicochemical; conditions: 3.0 or 5.0 wt.-%
Experimental: A composite filling material with the following composition was prepared:
3.0 wt.-% or 5.0 wt.-% of the antimicrobial active ingredient of formula (Ia) was incorporated into the composite filling material. After 20 s exposure to light with a dental polymerization light (Bluephase®, Ivoclar Vivadent AG), the through-curing depth was determined. For comparison, the antimicrobial active ingredients triclosan and chlorhexidine diacetate were also incorporated into the composite material in a quantity of 3.0 wt.-% or 5.0 wt.-% and the through-curing depth determined (see Table 5 for results).

[3] = Hardening properties of temporary cement based on polycarboxylate/zinc oxide (Systemp.cem); type: physicochemical; conditions: 0.3 or 3.0 wt.-%
Experimental: (§2) 0.3 wt.-% or 3.0 wt.-% of the antimicrobial active ingredient of formula (Ia) was incorporated into the initiator paste of the commercially available temporary fixing cement based on polycarboxylate/zinc oxide Systemp.cem (Ivoclar Vivadent AG). The processing time (PT), setting time (ST) and Shore D hardness were then determined.

[4] = Influence on radical polymerization: chemical hardening of Systemp.link; type: physicochemical; conditions: 3.0 wt.-%
Experimental: 3.0 wt.-% triclosan or 3.0 wt.-% of the antimicrobial active ingredient of formula (Ia) was incorporated into the base paste of the commercially available composite-based temporary fixing cement Systemp.link (Ivoclar Vivadent AG), which hardens radically. The processing time (PT), setting time (ST) and Shore D hardness in the case of chemical hardening were then determined.

[5] = Hardening properties of composite-based temporary cement (Systemp.link); type: physicochemical; conditions: 0.3 or 3.0 wt.-%
Experimental: as §2, with “base” for “initiator”, “available composite-based” for “available”, “Systemp.link” for “based on polycarboxylate/zinc oxide Systemp.cem”

[6] = Shore D hardness of temporary filling material (Fermit); type: physicochemical; conditions: 0.2 or 0.5 wt.-%
Experimental: as §1

[7] = 3.0 wt.-% active ingredient in cured Systemp.link small plates

Hardening after exposure to light [1]: hardened completely
Compound: CCCCCCCCNc1cc[n+](CCCCCCCCCC[n+]2ccc(NCCCCCCCC)cc2)cc1 [Ia]
Formation of zones of inhibition (Streptococcus mutans; [7]): clear zones of inhibition | Influence on the through-curing depth of the composite material [2]: does not have a significant negative influence | Influence on the hardening of Systemp.cem [3]: does not have a significant negative influence | Influence on the chemical hardening of Systemp.link [4]: does not have a significant negative influence | Influence on the hardening of Systemp.link [5]: does not have a significant negative influence | Influence on the hardening of Fermit [6]: does not have a significant negative influence

Influence on the through-curing depth of the composite material [2]: dramatically reduced
Compound: CC(=O)O.CC(=O)O.NC(=N\CCCCCC/N=C(N)/N=C(\N)Nc1ccc(Cl)cc1)/N=C(\N)Nc1ccc(Cl)cc1 [chlorhexidine diacetate]

Compound: Oc1cc(Cl)ccc1Oc1ccc(Cl)cc1Cl [triclosan, 2,4,4′-trichloro-2′-hydroxydiphenylether]
Formation of zones of inhibition (Streptococcus mutans; 1.0 wt.-% active ingredient in cured Systemp.link small plates): does not bring about a formation of zones of inhibition; also recorded: zones of inhibition do not form | Formation of zones of inhibition (Streptococcus mutans; [7]): does not bring about a formation of zones of inhibition; also recorded: zones of inhibition do not form | Influence on the through-curing depth of the composite material [2]: dramatically reduced | Influence on the chemical hardening of Systemp.link [4]: completely inhibited
